This test relates to U937 cells. Nature of the test: Cellular assay in U937 cells to measure the activity of RIPK1-inhibitors on cell death (necroptosis). It counts as cell-based. As to conditions: Homo sapiens, U-937, 50 μM zVAD.fmk and 100 ng/ml recombinant human TNFα, overnight (18 to 24 hrs), MTS readout. On the procedure: Absorbance of formazan was read at 490 nm. The inhibitory activity of the test compound was quantified in a concentration response curve (CRC) experiment.
Compounds were obtained as 10 mM stock solutions and were diluted 1 to 10 volumes with DMSO to yield a 1 mM solution. From this solution 2 μl were diluted with 998 μl growth medium.
U937 cells were cultured in RPMI1640 Glutamax and 10% heat inactivated FBS. […] 50 μl of compound dilutions, as described in Cellular assay in U937 cells, were added and the cell suspension incubated overnight (18 to 24 hrs) at 37° C., 5% CO2 in a humidified atmosphere (95% rH).
CellTiter 96 Aqueous reagent was mixed (100 μl PMS (phenazine methosulfate) solution/2 ml MTS (3-(4,5-[…])-5-(3-carboxymethoxyphenyl)-2-(4-sulfophenyl)-2H-tetrazolium, inner salt) solution) and 20 μl were added per well. After 4 hrs incubation at 37° C. (5% CO2 95% rH) optical density was measured at 490 nm on a microplate reader (Tecan Infinite M1000).
The % inhibition is expressed as percentage of the maximal inhibition value obtained in the absence of TNFα/zVAD.fmc.

One may read the IC50 as the concentration that inhibits the measured activity by half. For `Cc1ncc([C@@H]2CCON2C(=O)C2CCN(c3nccc(C4CCO4)n3)CC2)cc1F` (single isomer, unassigned) [Example 98], the IC50 is 269 nM.
As to `O=C(C1CCN(c2cc(-c3cccnc3)ncn2)CC1)N1OCC[C@H]1c1cncc(F)c1` [Example 1, (S)-(3-(5-fluoropyridin-3-yl)isoxazolidin-2-yl)(1-(6-(pyridin-3-yl)pyrimidin-4-yl)piperidin-4-yl)methanone], the IC50 was 37 nM.
As to `O=C1OCCN1c1nc(N2CCC(C(=O)N3OCC[C@H]3c3cnccn3)CC2)ncc1F` [Example 5, 3-[5-fluoro-2-[4-[(3S)-3-pyrazin-2-ylisoxazolidine-2-carbonyl]-1-piperidyl]pyrimidin-4-yl]oxazolidin-2-one], the IC50 amounted to 5 nM.
As to `Cc1nc([C@@H]2CCON2C(=O)C2CCN(c3cc(-n4ccnc4C)ncn3)CC2)cs1` [Example 7, [1-[6-(2-methylimidazol-1-yl)pyrimidin-4-yl]-4-piperidyl]-[(3S)-3-(2-methylthiazol-4-yl)isoxazolidin-2-yl]methanone], the IC50 is 9 nM.
On to `Cc1ccc([C@@H]2CCON2C(=O)C2CCN(c3ncc(F)c(-n4cccn4)n3)CC2)cn1` [Example 10, [1-(5-fluoro-4-pyrazol-1-yl-pyrimidin-2-yl)-4-piperidyl]-[(3S)-3-(6-methyl-3-pyridyl)isoxazolidin-2-yl]methanone], for which the IC50 turned out to be 4 nM.
For `O=C(C1CCN(c2nc(-c3ncco3)ncc2F)CC1)N1OCC[C@H]1c1cnccn1` [Example 13, [1-(5-fluoro-2-oxazol-2-yl-pyrimidin-4-yl)-4-piperidyl]-[(3S)-3-pyrazin-2-ylisoxazolidin-2-yl]methanone], the IC50 was found to be 27 nM.
For `Cc1ccc([C@@H]2CCON2C(=O)C2CCN(c3nccc(-c4ccnn4C)n3)CC2)cn1` [Example 15, [1-[4-(2-methylpyrazol-3-yl)pyrimidin-2-yl]-4-piperidyl]-[(3S)-3-(6-methyl-3-pyridyl)isoxazolidin-2-yl]methanone], the IC50 is 1 nM.
For `Cc1cnn(-c2cc(N3CCC(C(=O)N4OCC[C@H]4c4ccc(C)nc4)CC3)ncn2)c1` [Example 17, [1-[6-(4-methylpyrazol-1-yl)pyrimidin-4-yl]-4-piperidyl]-[(3S)-3-(6-methyl-3-pyridyl)isoxazolidin-2-yl]methanone], the IC50 is 39 nM.
The value for `Cc1ccc([C@@H]2CCON2C(=O)C2CCN(c3cc(-c4ccnn4C)ncn3)CC2)cn1` [Example 18, [1-[6-(2-methylpyrazol-3-yl)pyrimidin-4-yl]-4-piperidyl]-[(3S)-3-(6-methyl-3-pyridyl)isoxazolidin-2-yl]methanone] was 70 nM.
The value for `Cc1cn(-c2nc(N3CCC(C(=O)N4OCC[C@H]4c4cnccn4)CC3)ncc2F)c(C)n1` [Example 22, [1-[4-(2,4-dimethylimidazol-1-yl)-5-fluoro-pyrimidin-2-yl]-4-piperidyl]-[(3S)-3-pyrazin-2-ylisoxazolidin-2-yl]methanone] was 2 nM; that for `Cc1nccn1-c1ncnc(N2CCC(C(=O)N3OCC[C@H]3c3cnccn3)CC2)n1` [Example 26, (S)-(1-(4-(2-methyl-1H-imidazol-1-yl)-1,3,5-triazin-2-yl)piperidin-4-yl)(3-(pyrazin-2-yl)isoxazolidin-2-yl)methanone] was 5 nM; that for `O=C(C1CCN(c2ncc(F)c(-c3cncs3)n2)CC1)N1OCC[C@H]1c1cnccn1` [Example 27, (S)-(1-(5-fluoro-4-(thiazol-5-yl)pyrimidin-2-yl)piperidin-4-yl)(3-(pyrazin-2-yl)isoxazolidin-2-yl)methanone] was 1 nM.
Regarding `Cn1nccc1-c1cc(N2CCC(C(=O)N3OCC[C@H]3c3cnccn3)CC2)ncn1` [Example 28, (S)-(1-(6-(1-methyl-1H-pyrazol-5-yl)pyrimidin-4-yl)piperidin-4-yl)(3-(pyrazin-2-yl)isoxazolidin-2-yl)methanone], the IC50 was 43 nM.
For the compound `O=C(C1CCN(c2ncc(F)c(-n3cccn3)n2)CC1)N1OCC[C@H]1c1cnccn1` [Example 32, (S)-(1-(5-fluoro-4-(1H-pyrazol-1-yl)pyrimidin-2-yl)piperidin-4-yl)(3-(pyrazin-2-yl)isoxazolidin-2-yl)methanone], the IC50 was 1 nM.
Take `Cc1ccc([C@@H]2CCON2C(=O)C2CCN(c3ncnc(-n4ccnc4C)n3)CC2)cn1` [Example 35, [1-[4-(2-methylimidazol-1-yl)-1,3,5-triazin-2-yl]piperidin-4-yl]-[(3S)-3-(6-methylpyridin-3-yl)-1,2-oxazolidin-2-yl]methanone]: the IC50 came out at 2 nM.
Under `Cc1cncc([C@@H]2CCON2C(=O)C2CCN(c3nccc(N4CCOC4=O)n3)CC2)c1` [Example 36, 3-[2-[4-[(3S)-3-(5-methyl-3-pyridyl)isoxazolidine-2-carbonyl]-1-piperidyl]pyrimidin-4-yl]oxazolidin-2-one] stands 25 nM.
Take `Cn1nccc1-c1cc(N2CC[C@@H](C(=O)N3OCC[C@H]3c3cnccn3)C3(CC3)C2)ncn1` [Example 39, [(8R)-5-[6-(2-methylpyrazol-3-yl)pyrimidin-4-yl]-5-azaspiro[2.5]octan-8-yl]-[(3S)-3-pyrazin-2-yl-1,2-oxazolidin-2-yl]methanone]: the IC50 was determined as 20 nM.
For `Cc1nc([C@@H]2CCON2C(=O)[C@@H]2CCN(c3cc(-c4ncnn4C)ncn3)CC23CC3)cs1` [Example 41, [(3S)-3-(2-methyl-1,3-thiazol-4-yl)-1,2-oxazolidin-2-yl]-[(8R)-5-[6-(2-methyl-1,2,4-triazol-3-yl)pyrimidin-4-yl]-5-azaspiro[2.5]octan-8-yl]methanone], the IC50 came to 44 nM.
Take `Cc1ncc([C@@H]2CCON2C(=O)C2CCN(c3cc(-c4ncnn4C)ncn3)CC2)cc1F` [Example 49, [(3S)-3-(5-fluoro-6-methylpyridin-3-yl)-1,2-oxazolidin-2-yl]-[1-[6-(2-methyl-1,2,4-triazol-3-yl)pyrimidin-4-yl]piperidin-4-yl]methanone]: the IC50 turned out to be 15 nM.
Consider `Cc1cncc([C@@H]2CCON2C(=O)C2CCN(c3nccc(N4CCC5(CC5)C4=O)n3)CC2)c1` [Example 51, 5-[2-[4-[(3S)-3-(5-methylpyridin-3-yl)-1,2-oxazolidine-2-carbonyl]piperidin-1-yl]pyrimidin-4-yl]-5-azaspiro[2.4]heptan-4-one], for which the IC50 amounted to 26 nM.
Take `Cc1nc([C@@H]2CCON2C(=O)C2CCN(c3nccc(N4CCC5(CC5)C4=O)n3)CC2)co1` [Example 54, 5-[2-[4-[(3S)-3-(2-methyl-1,3-oxazol-4-yl)-1,2-oxazolidine-2-carbonyl]piperidin-1-yl]pyrimidin-4-yl]-5-azaspiro[2.4]heptan-4-one]: the IC50 is 51 nM.
Turning to `Cc1cnc([C@@H]2CCON2C(=O)C2CCN(c3nccc(N4CCCC4=O)n3)CC2)cn1` [Example 55, 1-[2-[4-[(3S)-3-(5-methylpyrazin-2-yl)-1,2-oxazolidine-2-carbonyl]piperidin-1-yl]pyrimidin-4-yl]pyrrolidin-2-one], the IC50 came to 78 nM.
Turning to `O=C(C1CCN(c2nccc(N3CCC(F)(F)C3=O)n2)CC1)N1OCC[C@H]1c1cnccn1` [Example 58, 3,3-difluoro-1-[2-[4-[(3S)-3-pyrazin-2-yl-1,2-oxazolidine-2-carbonyl]piperidin-1-yl]pyrimidin-4-yl]pyrrolidin-2-one], the IC50 is 65 nM.
Under `Cc1ncc([C@@H]2CCON2C(=O)C2CCN(c3nccc(N4CCC(C)(C)C4=O)n3)CC2)cc1F` [Example 60, 1-[2-[4-[(3S)-3-(5-fluoro-6-methylpyridin-3-yl)-1,2-oxazolidine-2-carbonyl]piperidin-1-yl]pyrimidin-4-yl]-3,3-dimethylpyrrolidin-2-one] stands 506 nM; under `Cc1ncc([C@@H]2CCON2C(=O)C2CCN(c3nccc(N4CCC5(CC5)C4=O)n3)CC2)cc1F` [Example 61, 5-[2-[4-[(3S)-3-(5-fluoro-6-methylpyridin-3-yl)-1,2-oxazolidine-2-carbonyl]piperidin-1-yl]pyrimidin-4-yl]-5-azaspiro[2.4]heptan-4-one], 32 nM; under `CN1CCN(c2ccnc(N3CCC(C(=O)N4OCC[C@H]4c4cncc(F)c4)CC3)n2)C1=O` [Example 62, 1-[2-[4-[(3S)-3-(5-fluoropyridin-3-yl)-1,2-oxazolidine-2-carbonyl]piperidin-1-yl]pyrimidin-4-yl]-3-methylimidazolidin-2-one], 41 nM.
Turning to `Cc1ccc([C@@H]2CCON2C(=O)[C@@H]2CCN(c3nccc(N4CCOCC4=O)n3)CC23CC3)cn1` [Example 63, 4-[2-[(8R)-8-[(3S)-3-(6-methylpyridin-3-yl)-1,2-oxazolidine-2-carbonyl]-5-azaspiro[2.5]octan-5-yl]pyrimidin-4-yl]morpholin-3-one], the IC50 was 44 nM.
Regarding `Cc1nccn1-c1nc(N2CCC(C(=O)N3OCC[C@H]3c3cncc(F)c3)CC2)ncc1F` [Example 64, [1-[5-fluoro-4-(2-methylimidazol-1-yl)pyrimidin-2-yl]piperidin-4-yl]-[(3S)-3-(5-fluoropyridin-3-yl)-1,2-oxazolidin-2-yl]methanone], the IC50 came out at 1 nM.
As for `Cc1ccc([C@@H]2CCON2C(=O)C2CCN(c3nccc(N4CCCC(F)(F)C4=O)n3)CC2)cn1` [Example 66, 3,3-difluoro-1-[2-[4-[(3S)-3-(6-methylpyridin-3-yl)-1,2-oxazolidine-2-carbonyl]piperidin-1-yl]pyrimidin-4-yl]piperidin-2-one], the IC50 amounted to 3440 nM.

These data come from patent US20260234136A1, “ISOXAZOLIDINES AS RIPK1 INHIBITORS AND USE THEREOF” (GENZYME CORPORATION, priority 2023, published 2026).
